# Laboratory results taken from patent publication US9422357B2, “Glycosylated polypeptide and drug composition containing said polypeptide” (priority 2011, dated 2016).
# Experiments:
# [1] = Pharmacokinetics test with rats (intravenous and subcutaneous administration); conditions: rat
# Procedure: PBS solution was prepared by dissolving 1 tablet of Phosphate buffered saline (P4417 from Sigma) in 200 mL of ultrapure water.
# 0.2 mL of the collected blood was promptly mixed with 0.2 mL of the aprotinin-containing EDTA-PBS solution prepared in the above 68-1, and left on ice for 30 minutes or more. […] As blank plasma, plasma obtained by similarly treating the blood collected from untreated rat cervical vein was employed. Plasma samples were frozen in storage until employed for measurement. […] The standard solution for creating a standard curve was prepared as follows. First, the blank plasma obtained in the above 68-2 was diluted with the assay buffer supplied in the EIA kit similarly to the plasma sample, and this was used as the assay buffer for standard solution preparation (for example, when diluting the plasma sample to 100-fold, 1/100 amount of blank plasma was added to the assay buffer supplied in the EIA kit, and this was used as the assay buffer for standard solution preparation). […] Moreover, the predicted initial concentration (C0) was determined by the extrapolation method for intravenous administration, t1/2 and MRT were calculated, and the maximum plasma concentration (Cmax) was determined from the actual value for subcutaneous administration.
# Moreover, the parameters obtained were employed to calculate bioavailability from the following mathematical formula. […]
# [2] = tested on: amylase, LDH, CPK; assay: Gastrointestinal obstruction model, blood parameters (amylase, LDH, CPK); conditions: Table 10; rat gastrointestinal obstruction model
# Procedure: This experimental line was carried out as a test line to evaluate the promotion of intestinal fluid absorption or the secretory suppressing action, using the change in the intestinal fluid weight in the jejunum after bowel obstruction as an indicator. Moreover, blood parameters of deviation enzymes amylase (pancreas), lactate dehydrogenase (LDH, liver), and creatine phosphokinase (CPK, skeletal muscle, cardiac muscle etc.) were measured as indicators of tissue disorders.
# Anesthesia was introduced with inhalation of 2% isoflurane and laughing gas:oxygen=7:3, and this was maintained throughout the surgery. A median incision was made in the abdomen, and the jejunum at about 10 cm from the musculus suspensorius duodeni was ligated with a surgical suture. Then, the incision site was promptly sutured, and the rats were fasted until compound administration. […]
# One hour after compound administration, a median incision was made in the abdomen under inhalation anesthesia, and 1.5 mL of blood was collected from the abdominal vena cava. […] The fluid and blood on the jejunum surface were removed with a paper towel, nerves, blood vessels, and fat attached to the jejunum was removed, this was cut into 6 cm lengths, and wet weight was measured. This was then dried at 36 degrees for 24 hours, and dry weight was measured. […]
Compound,"C0, intravenous administration ([1]; Table 5D, no unit at the table (Table 4: nM), extrapolation)","C0, intravenous administration ([1]; Tables 5B-5F, no unit printed in these tables (Table 5A footnote: nM))",LDH activity compared to the vehicle [2],amylase activity compared to the vehicle [2]
C[C@H](N)C(=O)NCC(=O)N[C@H]1CSSC[C@@H](C(=O)O)NC(=O)[C@H](CO)NC(=O)[C@H]([C@@H](C)O)NC(=O)[C@H](Cc2ccccc2)NC(=O)[C@H]([C@@H](C)O)NC(=O)[C@H](CCCCN)NC(=O)[C@H](Cc2c[nH]c3ccccc23)NC(=O)[C@H](Cc2ccccc2)NC(=O)[C@H](Cc2ccccc2)NC(=O)[C@H](CC(N)=O)NC(=O)[C@H](CCCCN)NC1=O [SRIF14],819,819,–,–
C[C@@H](O)[C@@H]1NC(=O)[C@H](CCCCN)NC(=O)[C@@H](Cc2c[nH]c3ccccc23)NC(=O)[C@H](Cc2ccccc2)NC(=O)[C@@H](NC(=O)[C@H](N)Cc2ccccc2)CSSC[C@@H](C(=O)N[C@H](CO)[C@@H](C)O)NC1=O [octreotide],–,–,low value compared to the vehicle,equivalent to the vehicle
